Data set [1] deals with XylRA. Description: isothermal titration calorimetry. As to conditions: 10 mM Tris-HCl pH 8.0, 100 mM NaCl, 25°C; effector.
Data set [2] has as its target T1, XylC.
T1 construct: construct borders only in supplement
Description: isothermal titration calorimetry. Format: binding, Vibrio sp. EA2. As to conditions: 10 mM Tris-HCl pH 8.0, 100 mM NaCl, 25°C. On the technique in general: ITC needs no label: the signal is the heat of the interaction.

For data set [3], the target named is T2, BxlE (Streptomyces thermoviolaceus, UniProt Q76BU9).
T2 construct: gene bxlD
T2 sequence (Q76BU9 1-436): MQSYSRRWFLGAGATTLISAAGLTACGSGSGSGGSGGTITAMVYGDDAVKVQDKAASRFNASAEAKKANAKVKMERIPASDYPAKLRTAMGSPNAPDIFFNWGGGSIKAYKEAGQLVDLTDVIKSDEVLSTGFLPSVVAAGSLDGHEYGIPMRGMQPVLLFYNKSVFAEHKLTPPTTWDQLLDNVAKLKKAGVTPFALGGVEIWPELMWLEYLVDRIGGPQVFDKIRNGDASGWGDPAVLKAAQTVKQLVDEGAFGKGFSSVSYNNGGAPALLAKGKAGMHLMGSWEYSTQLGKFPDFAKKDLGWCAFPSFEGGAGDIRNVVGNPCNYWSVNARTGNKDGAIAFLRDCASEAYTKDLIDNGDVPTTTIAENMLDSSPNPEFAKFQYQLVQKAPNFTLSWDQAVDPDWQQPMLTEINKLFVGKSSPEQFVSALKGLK
Description: biochemical. Also on record: isothermal titration calorimetry binding of xylooligosaccharides to recombinant substrate-binding proteins.

The target in data set [4] is XylRA (Vibrio sp. EA2, UniProt A0A090T8X9 1-401). Put plainly: EMSA; xylose; EMSA: 25 ng biotin-labelled probe, 0.1-0.5 nmol XylRA in 20 uL EMSA/Gel-shift binding buffer (Beyotime), xylose present, room temperature; salt and pH not stated. As to conditions: protein: recombinant; tags: C-terminal His (pET-22b); chain copies: 2; label: 5'-biotin on strand 1; blunt.

`OC1OC[C@@H](O)[C@H](O)[C@H]1O` (stereo partly shown) [X, xylose] displayed a Kd in data set [1] of 5100 nM.

Take `OC1OC[C@@H](O)[C@H](O[C@@H]2OC[C@@H](O)[C@H](O[C@@H]3OC[C@@H](O)[C@H](O[C@@H]4OC[C@@H](O)[C@H](O)[C@H]4O)[C@H]3O)[C@H]2O)[C@H]1O` (stereo partly drawn) [β-1,3X4, β-1,3-xylotetraose]: in data set [2], binding was put at a Kd of 1000 nM.

With `OC1OC[C@@H](O[C@@H]2OC[C@@H](O)[C@H](O)[C@H]2O)[C@H](O)[C@H]1O` (stereo partly drawn) [β-1,4X2], in data set [3], the dissociation constant (Kd) stood at 15.1 ± 4.04 nM.

Turning to `OC1OC[C@@H](O[C@@H]2OC[C@@H](O[C@@H]3OC[C@@H](O)[C@H](O)[C@H]3O)[C@H](O)[C@H]2O)[C@H](O)[C@H]1O` (stereo partly drawn) [β-1,4X3], in data set [3], the Kd stood at 6.28 ± 1.93 nM.

`OC1OC[C@@H](O[C@@H]2OC[C@@H](O[C@@H]3OC[C@@H](O[C@@H]4OC[C@@H](O)[C@H](O)[C@H]4O)[C@H](O)[C@H]3O)[C@H](O)[C@H]2O)[C@H](O)[C@H]1O` (stereo partly drawn) [β-1,4X4]: the Kd in data set [3] came out at 13.2 ± 1.93 nM.

B1: PxylB (dsDNA)
DNA 1: CAATTATGTTTTTTTACAGGTGAATTCACGGATTTCACGAGTGAGTCTGA
DNA 2: TCAGACTCACTCGTGAAATCCGTGAATTCACCTGTAAAAAAACATAATTG
As to B1, the binding result in data set [4] is “binds”.

B2: PxylT (dsDNA)
DNA 1: ACATTTAGCAAATAGGTGAAATTTGGTATCAAAAATCATAATTGATGGCG
DNA 2: CGCCATCAATTATGATTTTTGATACCAAATTTCACCTATTTGCTAAATGT
For the molecule B2, in data set [4], the binding result was “binds”.

B3: PxylT-m2 (dsDNA)
DNA 1: ACATTTAGCGCATAGGTGAAATTTGGTATCGCAAATCATAATTGATGGCG
DNA 2: CGCCATCAATTATGATTTGCGATACCAAATTTCACCTATGCGCTAAATGT
For the molecule B3, the binding result in data set [4] is on record as “no binding”.

B4: PxylC (dsDNA)
DNA 1: GGAAATAAATAGAATAAATGTGGTGAGAGATATAATAATACTTGCCATAG
DNA 2: CTATGGCAAGTATTATTATATCTCTCACCACATTTATTCTATTTATTTCC
As for B4, the binding result in data set [4] is on record as “binds”.

B5: Pxyn26B (dsDNA)
DNA 1: ACACAAAAAAAATATAAAAATATAATCAGAAAAAATCATAATTGATATTG
DNA 2: CAATATCAATTATGATTTTTTCTGATTATATTTTTATATTTTTTTTGTGT
Take B5: the binding result in data set [4] is reported as “binds”.

As a reminder, the Kd is a measure of binding affinity in units of concentration.

The values above are taken from PMC12125979, “Complete xylan utilization pathway and regulation mechanisms involved in marine algae degradation by cosmopolitan marine and human gut microbiota” (The ISME Journal, 2025).
